Laboratory results as given in patent publication US20190351003A1, “METHODS FOR INHIBITING NONALCOHOLIC STEATOHEPATITIS, NONALCOHOLIC FATTY LIVER DISEASE, AND/OR DE NOVO LIPOGENESIS” (The Regents of the University of California, priority 2017, published 2019).

Key:
HFD-fed MUP-uPA mice = test: Casp2 inhibitor treatment of HFD-fed MUP-uPA mice (NASH model); type: in vivo, mouse; details: for circulating TG / circulating cholesterol: serum
Method: FIGS. 6A-6G are pictorial and graphical diagrams showing that Casp2 inhibition ameliorates NASH. […] After 6 weeks of HFD feeding, MUP-uPA mice were treated with Ac-VDVAD (10 μg/g) for 6 weeks while kept on HFD. […] FFPE sections from livers of inhibitor or vehicle treated mice were evaluated for macrovesicular fat, ballooning hepatocytes, MDB and p62 aggregates, macrophages, collagen fibers and lipid droplets. Magnification bars: 100 μm. Images were quantitated as above and results are shown on the right as averages±SEM (Vehicle: n=6; Ac-VDVAD: n=5). […] Mean±SEM. […] Adipocyte size and density were determined as above. ATM (adipose tissue macrophages) were visualized by F4/80 staining and quantified as above.
Casp2^−/− mice were purchased from The Jackson Laboratories and crossed with either C57BL/6 or MUP-uPA mice (Sandgren et al., 1991; Weglarz et al., 2000) to generate Casp2^−/−/WT or Casp2^−/−/MUP-uPA mice, respectively. All mouse lines were either on a pure C57BL/6 genetic background or crossed into it for at least nine generations. Mice were fed with HFD (#S3282, Bio-serv) for a total of 12 weeks, starting at 8 weeks of age. Body weight increase and food consumption were monitored bi-weekly throughout the entire feeding period. Mice were starved for 3 hr before sacrifice and liver and adipose tissue were excised and weighed.
(§1) RNAs were extracted from liver or fat tissue of indicated mice or human biopsies using TRIZOL reagent according to manufacturer's instruction. cDNAs were synthesized from total RNAs using Super Script VILO cDNA Synthesis Kit (Thermo Fisher Scientific, MA) according to the supplier's instructions. The cDNAs were quantified by real-time PCR analysis using SYBR Green Master Mix (Bio-Rad, CA). Primer sequences that were used for human biopsies are as follows:
Liver and epidydimal fat were fixed in 4% paraformaldehyde for 48 hr and embedded in paraffin, sectioned, stained with hematoxylin and eosin (H&E) to evaluate gross morphology and ballooning degeneration and with Sirius Red to determine fibrosis. Prepared FFPE sections were subjected to incubation with antibodies specific to p62 and F4/80 to visualize formation of Mallory-Denk Bodies (MDB) and macrophage infiltration, respectively. For frozen-block preparation, liver tissue was embedded in Tissue-Tek OCT compound (Sakura Finetek), sectioned, and stained with Oil Red O to visualize TG accumulation. Stained areas were quantified using ImageJ software.
Liver lipids were extracted using chloroform/methanol (2:1 v/v) and plasma and liver TG and cholesterol were determined using Triglyceride Colorimetric Assay Kit (Cayman Chemical Company, MI) and Cholesterol Quantification Kit (Sigma-Aldrich, MO) according to manufacturer's instructions.
Morphological analysis of adipocytes was performed by using MRI adipocyte tools (Osman et al., 2013). Images were taken from FFPE epidydimal fat section by AXIO Imager A2 (Carl Zeiss, Germany) and subjected to MRI adipocyte software to obtain area of individual fat cell and number of adipocytes per HMF. Quantification and statistical significance were analyzed by Prism 7 software (GraphPad Prism, CA).
To examine whether Casp2 inhibition is of therapeutic value, Ac-VDVAD-CHO (C23H37N5O10), a cell permeable, Casp2 inhibitor (Talanian et al., 1997) was administrated to HFD-fed MUP-uPA mice. HFD feeding was initiated at eight weeks of age, and six weeks later the mice were given the Casp2 inhibitor on alternate days by intraperitoneal (i.p.) injection (FIG. 6A). After a 6-week treatment regimen, the mice were sacrificed and their liver and adipose tissue were examined. […] Fibrosis was also attenuated. qRT-PCR analysis confirmed that expression of inflammatory cytokines and markers as well as fibrosis-related genes was reduced in response to Casp2 inhibition (FIG. 6C). […]

[1] = system: human caspases (including caspase-2); details: cited from earlier work
Casp2 = test: Tunicamycin (ER stress inducer) administration to NC-fed BL6 mice, liver Casp2 expression; type: in vivo, mouse; details: non-transgenic 3-month-old NC-fed BL6 mice; tunicamycin 1.25 mg/kg i.p.
Method: FIGS. 12A-12I are pictorial and graphical diagrams showing elevated Casp2 expression in ER-stressed mice and human NASH. FIG. 12A the results from immunoblot (IB) analysis of whole cell lysates (WCL) from 5-week-old WT and MUP-uPA livers (left) and WCL of livers from 3-month-old WT mice that were i.p. injected with dextrose or tunicamycin (1.25 mg/kg). Results are mean±SEM (dextrose: n=4; tunicamycin: n=5). P: precursor, C: cleaved. […] Results are mean±SEM (WT: n=5; MUP: n=9). […] Casp4 and Casp12 were examined in liver lysates of 5-week-old mice. […] Staining intensity was quantitated using ImageJ as described in FIG. 1.
as §1
ER stress in MUP-uPA liver peaks in 5- to 6-week-old mice and then declines due to reduced uPA expression in newly regenerated hepatocytes (Nakagawa et al., 2014; Sandgren et al., 1991). […]

MUP-uPA mice = details: HFD-fed MUP-uPA mice; cited from earlier work
[2] = biological target: T1, Flag-tagged SREBP2, Q12772
T1 chain: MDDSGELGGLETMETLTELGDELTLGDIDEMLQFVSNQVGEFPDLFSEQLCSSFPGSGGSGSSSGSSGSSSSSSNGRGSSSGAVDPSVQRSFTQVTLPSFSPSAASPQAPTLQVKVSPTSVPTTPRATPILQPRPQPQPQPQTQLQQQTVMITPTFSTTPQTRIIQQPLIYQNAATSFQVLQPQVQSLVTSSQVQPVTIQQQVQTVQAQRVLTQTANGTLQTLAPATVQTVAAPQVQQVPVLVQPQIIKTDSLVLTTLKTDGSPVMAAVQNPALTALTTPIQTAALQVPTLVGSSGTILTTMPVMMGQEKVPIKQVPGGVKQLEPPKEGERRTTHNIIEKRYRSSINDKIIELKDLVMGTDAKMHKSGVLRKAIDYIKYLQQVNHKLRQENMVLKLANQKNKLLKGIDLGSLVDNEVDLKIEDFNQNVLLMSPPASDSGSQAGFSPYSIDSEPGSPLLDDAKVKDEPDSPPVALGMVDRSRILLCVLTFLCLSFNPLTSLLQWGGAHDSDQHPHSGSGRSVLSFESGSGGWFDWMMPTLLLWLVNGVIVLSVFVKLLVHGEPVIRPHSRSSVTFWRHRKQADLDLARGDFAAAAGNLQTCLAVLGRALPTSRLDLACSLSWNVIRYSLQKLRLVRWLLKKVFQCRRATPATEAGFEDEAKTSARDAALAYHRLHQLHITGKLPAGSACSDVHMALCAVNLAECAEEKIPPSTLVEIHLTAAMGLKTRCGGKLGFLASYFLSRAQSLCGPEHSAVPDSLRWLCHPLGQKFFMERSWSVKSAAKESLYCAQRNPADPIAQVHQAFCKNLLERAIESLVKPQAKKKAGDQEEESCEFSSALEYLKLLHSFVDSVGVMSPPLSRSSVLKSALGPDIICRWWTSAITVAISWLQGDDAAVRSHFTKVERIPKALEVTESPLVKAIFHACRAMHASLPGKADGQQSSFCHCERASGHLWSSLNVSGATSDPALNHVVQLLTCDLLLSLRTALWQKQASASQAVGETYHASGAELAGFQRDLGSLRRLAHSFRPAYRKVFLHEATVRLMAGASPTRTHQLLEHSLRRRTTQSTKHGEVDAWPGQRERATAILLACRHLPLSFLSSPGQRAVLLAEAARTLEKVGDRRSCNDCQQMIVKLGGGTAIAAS

[3] = HFD-fed MUP-uPA mice, 10 μg/g i.p. every other day for 6 weeks
[4] = HFD-fed MUP-uPA mice, 10 μg/g i.p. every other day for 6 weeks, liver
[5] = HFD-fed MUP-uPA mice, 10 μg/g i.p. on alternate days for 6 weeks
[6] = HFD-fed MUP-uPA mice, 10 μg/g i.p. on alternate days for 6 weeks, liver sections
[7] = liver WCL, IB, HFD-fed MUP-uPA mice, 10 μg/g i.p. on alternate days for 6 weeks

z-VDVAD-fmk
ATM (adipose tissue macrophage) accumulation / infiltration into epidydimal fat (HFD-fed MUP-uPA mice; [3]): reduced
UCP1 expression in BAT (HFD-fed MUP-uPA mice; [3]): elevating
inflammatory infiltration in livers (HFD-fed MUP-uPA mice; [3]): decreased
liver TG (HFD-fed MUP-uPA mice; [3]): significantly prevented
liver fibrosis (HFD-fed MUP-uPA mice; [3]): dramatically reduced
MDB (Mallory-Denk body) formation (HFD-fed MUP-uPA mice; [4]): decreased
circulating TG (HFD-fed MUP-uPA mice; [3]): decreased
circulating cholesterol (HFD-fed MUP-uPA mice; [3]): decreased

C[C@H](NC(=O)C(=O)Nc1ccccc1C(C)(C)C)C(=O)N[C@@H](CC(=O)O)C(=O)COc1c(F)c(F)cc(F)c1F [IDN-6556]
activity against human caspases ([1]; broad-spectrum (pan-caspase) inhibitor): activity against all tested human caspases
inhibition of other classes of proteases or other enzymes or receptors other than caspases ([1]; selectivity): no inhibition

tunicamycin
Casp2 protein and RNA in liver (Casp2): induced

O=C(O)CCCc1ccccc1 [PBA, phenyl butyric acid]
NASH development (MUP-uPA mice): effectively inhibited
activation of sterol response element binding proteins (SREBP) (MUP-uPA mice): attenuate
lipid accumulation (MUP-uPA mice): inhibit

C[C@H](CCC(=O)NCCS(=O)(=O)O)[C@H]1CC[C@H]2[C@@H]3[C@@H](O)C[C@@H]4C[C@H](O)CC[C@]4(C)[C@H]3CC[C@]12C [TUDCA, tauroursodeoxycholic acid]
NASH development (MUP-uPA mice): effectively inhibited
activation of sterol response element binding proteins (SREBP) (MUP-uPA mice): attenuate
lipid accumulation (MUP-uPA mice): inhibit

Ac-VDVAD-aldehyde
ATM (adipose tissue macrophage) accumulation / infiltration into epidydimal fat (HFD-fed MUP-uPA mice; [3]): blocked
UCP1 expression in BAT (HFD-fed MUP-uPA mice; [3]): enhanced
liver TG (HFD-fed MUP-uPA mice; [3]): decreased
liver fibrosis (HFD-fed MUP-uPA mice; [3]): attenuated
MDB (Mallory-Denk body) formation (HFD-fed MUP-uPA mice; [4]): prevented
circulating TG (HFD-fed MUP-uPA mice; [3]): decreased
circulating cholesterol (HFD-fed MUP-uPA mice; [3]): decreased
blood insulin (HFD-fed MUP-uPA mice; [5]): had no effect
body weight (HFD-fed MUP-uPA mice; [5]): had no effect
hepatic steatosis (HFD-fed MUP-uPA mice; HFD-fed MUP-uPA mice, 10 μg/g i.p. on alternate days for 6 weeks after 6 weeks of HFD, liver sections): prevented
macrophage recruitment (HFD-fed MUP-uPA mice; HFD-fed MUP-uPA mice, 10 μg/g i.p. on alternate days for 6 weeks, liver): decreasing
ballooning degeneration (HFD-fed MUP-uPA mice; [6]): prevented
p62 accumulation (HFD-fed MUP-uPA mice; [6]): prevented
SREBP1/2 activation in liver (HFD-fed MUP-uPA mice; IB of liver WCL and NE, HFD-fed MUP-uPA mice, 10 μg/g i.p. on alternate days for 6 weeks): attenuated
energy expenditure, as suggested by AMPK activation in peripheral tissues, including liver and skeletal muscle (HFD-fed MUP-uPA mice; IB of liver and muscle extracts, HFD-fed MUP-uPA mice, 10 μg/g i.p. on alternate days for 6 weeks): increased
established NASH (HFD-fed MUP-uPA mice; MUP-uPA mice, 10 μg/g for 6 weeks after 6 weeks of HFD feeding, kept on HFD): ameliorates
adipocyte enlargement (HFD-fed MUP-uPA mice; epidydimal fat, HFD-fed MUP-uPA mice, 10 μg/g i.p. on alternate days for 6 weeks): blocked
INSIG1 or 2 expression (HFD-fed MUP-uPA mice; [7]): had no effect
IRS2 expression (HFD-fed MUP-uPA mice; [7]): had no effect
StARD4 expression (HFD-fed MUP-uPA mice; [7]): reduced
mTORC1/p70S6K activation (HFD-fed MUP-uPA mice; [7]): had no effect
expression of inflammatory cytokines and markers as well as fibrosis-related genes (HFD-fed MUP-uPA mice; qRT-PCR, HFD-fed MUP-uPA mice, 10 μg/g i.p. on alternate days for 6 weeks): reduced

B1: Casp2-HA (mouse Casp2 with a C terminal HA epitope) (protein)
chain: MAAPSGRSQSSLHRKGLMAADRRSRILAVCGMHPDHQETLKKNRVVLAKQLLLSELLEHLLEKDIITLEMRELIQAKGGSFSQNVELLNLLPKRGPQAFDAFCEALRETRQGHLEDLLLTTLSDIQHVLPPLSCDYDTSLPFSVCESCPPHKQLRLSTDATEHSLDNGDGPPCLLVKPCTPEFYQAHYQLAYRLQSQPRGLALVLSNVHFTGEKDLEFRSGGDVDHTTLVTLFKLLGYNVHVLHDQTAQEMQEKLQNFAQLPAHRVTDSCVVALLSHGVEGGIYGVDGKLLQLQEVFRLFDNANCPSLQNKPKMFFIQACRGDETDRGVDQQDGKNHTQSPGCEESDAGKEELMKMRLPTRSDMICGYACLKGNAAMRNTKRGSWYIEALTQVFSERACDMHVADMLVKVNALIKEREGYAPGTEFHRCKEMSEYCSTLCQQLYLFPGYPPT
SREBP activation/cleavage (immunoblot) [2]: co-transfection of Casp2 with SREBP2 into either SCAP-deficient (293^ΔSCAP) or WT HEK293 cells did not result in SREBP1/2 activation/cleavage, unless an SP expression vector was also included
